The subject of this assay is transgenic mice expressing agouti specifically in adipocytes under the control of the aP2 promoter. Nature of the assay: Example 2: weight, fat pad and muscle mass after six weeks on diets including fresh whey products. To be noted: Example 2, FIG. 11, 1 = Ad Lib, 2 = loCa, 3 = milk, 4 = fresh whey protein, 5 = casein, 6 = soy, 7 = fresh whey mineral, 8 = fresh whey mineral/ACE. The assay is classed as in vivo. The source says:
The same animals were used as in Example 1. […] All diets had 25% fat (lard+soy oil), with sucrose as sole carbohydrate and the proteins indicated as the sole protein source. Group 1 continued for 6 weeks on the above diet ad libitum. Groups 2-8 continued for six weeks on a restricted diet (70% of the ad libitum energy intake). […] Group 8 used a fresh whey mineral isolate with a whey-derived ACE-inhibitor (e.g., BIPRO). During the six weeks, body weight, food intake and core temperature were measured weekly. […] Specifically, core temperature was monitored weekly as an indirect metabolic index using a thermocouple, and fasting insulin (by radioimmunoassay), leptin (by radioimmunoassay) and glucose (by glucose oxidase) levels were assessed at baseline and at weeks 2, and 6. At the conclusion of the study, all mice were sacrificed under isofluorane anaesthesia and individual subcutaneous and visceral fat depots were excised and weighed for comparison of fat accumulation among the groups and assessment of adipocyte size and number via a Coulter Counter method. Aliquots of adipose tissue were then immediately frozen in liquid nitrogen for subsequent study of gene expression.

With `O=C([O-])[O-].[Ca+2]` [calcium carbonate], the “gastrocnemius muscle mass (most to least), Benefit Ranking” value is “did not modify or attenuate this decrease”.

Source of the values: patent US20090053199A1, “Stable Dairy Components Effective for Fat Loss” (priority 2005, published 2009).
